# Test results as given in paper PMC6940761, “Novel Diels–Alder Type Adducts from Morus alba Root Bark Targeting Human Monoamine Oxidase and Dopaminergic Receptors for the Management of Neurodegenerative Diseases” (International Journal of Molecular Sciences, 2019).
# Where “and” joins values, the source holds several entries; their conditions need not be identical. Equal values may be shown once. Read-outs that look alike come from different tables or passages of the source.
# How the values were obtained:
# hMAO = assay: initial hMAO activity screen at 100 µg/mL (MAO-Glo); format: biochemical, human; settings: isozyme not stated
# [1] = target: T1, human dopamine D2L receptor (hD2LR) (Homo sapiens, UniProt P14416); assay: cell-based functional GPCR assay, Ca2+ mobilization, CHO-D2LR; settings: for inhibition at 100 µM / % Stimulation of control agonist response: D2L (h), 100 µM test compound; for inhibition at 100 µM: control 700 nM DA, read-out: % Inhibition of control agonist response (converted); for % Stimulation of control agonist response: control 10 μM DA; for inhibition at 25 µM: D2LR, 25 µM test compound, read-out: % inhibition of DA response
# T1 construct: host or cells: CHO (CHO-D2LR)
# T1 sequence (P14416 whole entry): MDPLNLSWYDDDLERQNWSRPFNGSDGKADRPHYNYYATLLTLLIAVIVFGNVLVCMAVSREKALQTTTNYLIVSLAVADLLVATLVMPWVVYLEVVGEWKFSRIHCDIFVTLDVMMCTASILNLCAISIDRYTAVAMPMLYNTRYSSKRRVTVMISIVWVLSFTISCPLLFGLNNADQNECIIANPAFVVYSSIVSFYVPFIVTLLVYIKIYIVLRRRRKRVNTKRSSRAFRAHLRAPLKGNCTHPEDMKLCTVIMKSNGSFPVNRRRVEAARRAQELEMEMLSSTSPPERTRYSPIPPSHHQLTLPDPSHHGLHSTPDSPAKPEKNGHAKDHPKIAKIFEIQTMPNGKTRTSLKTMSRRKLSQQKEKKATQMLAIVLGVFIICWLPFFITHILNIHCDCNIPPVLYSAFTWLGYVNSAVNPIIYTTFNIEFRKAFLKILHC
# [2] = target: human dopamine D3 receptor (hD3R) (Homo sapiens, UniProt P35462); assay: cell-based functional GPCR assay, cAMP modulation, CHO-D3R; settings: for % Stimulation of control agonist response: D3 (h), 100 µM test compound, control 300 nM DA; for agonist response (%): D3R, 25 µM test compound; for inhibition at 100 µM: read-out: % Inhibition of control agonist response
# human dopamine D3 receptor (hD3R), sequence (P35462 whole entry): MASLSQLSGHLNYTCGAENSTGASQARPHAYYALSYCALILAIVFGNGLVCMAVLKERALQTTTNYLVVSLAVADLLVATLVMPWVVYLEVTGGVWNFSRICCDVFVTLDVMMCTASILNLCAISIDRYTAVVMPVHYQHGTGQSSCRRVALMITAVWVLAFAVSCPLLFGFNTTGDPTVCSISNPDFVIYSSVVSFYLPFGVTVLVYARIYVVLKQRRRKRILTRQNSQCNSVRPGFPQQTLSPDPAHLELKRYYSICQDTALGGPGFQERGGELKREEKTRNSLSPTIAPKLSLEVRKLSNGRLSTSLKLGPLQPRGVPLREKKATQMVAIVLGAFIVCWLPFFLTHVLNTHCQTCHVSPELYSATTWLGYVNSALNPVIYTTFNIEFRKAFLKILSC
# [3] = target: human dopamine D1 receptor (hD1R) (Homo sapiens, UniProt P21728); assay: cell-based functional GPCR assay, cAMP modulation, CHO-D1R; settings: for % Stimulation of control agonist response: D1 (h), 100 µM test compound, control 10 μM DA; for inhibition at 100 µM: read-out: % Inhibition of control agonist response; for inhibition at 25 µM: read-out: % inhibition of DA response
# human dopamine D1 receptor (hD1R), sequence (P21728 whole entry): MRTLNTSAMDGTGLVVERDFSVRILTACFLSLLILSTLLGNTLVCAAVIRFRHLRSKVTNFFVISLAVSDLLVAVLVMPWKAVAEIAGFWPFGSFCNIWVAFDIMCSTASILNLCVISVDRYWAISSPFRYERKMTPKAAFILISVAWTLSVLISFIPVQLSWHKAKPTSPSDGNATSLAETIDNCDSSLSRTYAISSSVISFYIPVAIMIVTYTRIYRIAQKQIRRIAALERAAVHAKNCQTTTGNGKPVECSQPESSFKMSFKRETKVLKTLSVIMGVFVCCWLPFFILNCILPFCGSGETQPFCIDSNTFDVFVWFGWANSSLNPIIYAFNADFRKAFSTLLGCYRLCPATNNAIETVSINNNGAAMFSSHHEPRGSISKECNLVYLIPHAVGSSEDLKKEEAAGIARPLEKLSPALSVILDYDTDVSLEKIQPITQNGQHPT
# [4] = target: T2, Human Monoamine Oxidase B (hMAO-B) (Homo sapiens, UniProt P27338); assay: hMAO-B inhibition, MAO-Glo chemiluminescent assay and enzyme kinetics; format: biochemical; settings: for Inhibition Type: Lineweaver–Burk and Dixon plots; for IC50: log dose-inhibition curve, triplicate, read-out: IC50 (μM, Mean ± SD)
# T2 construct: purchased Sigma-Aldrich
# T2 sequence (P27338 1-520): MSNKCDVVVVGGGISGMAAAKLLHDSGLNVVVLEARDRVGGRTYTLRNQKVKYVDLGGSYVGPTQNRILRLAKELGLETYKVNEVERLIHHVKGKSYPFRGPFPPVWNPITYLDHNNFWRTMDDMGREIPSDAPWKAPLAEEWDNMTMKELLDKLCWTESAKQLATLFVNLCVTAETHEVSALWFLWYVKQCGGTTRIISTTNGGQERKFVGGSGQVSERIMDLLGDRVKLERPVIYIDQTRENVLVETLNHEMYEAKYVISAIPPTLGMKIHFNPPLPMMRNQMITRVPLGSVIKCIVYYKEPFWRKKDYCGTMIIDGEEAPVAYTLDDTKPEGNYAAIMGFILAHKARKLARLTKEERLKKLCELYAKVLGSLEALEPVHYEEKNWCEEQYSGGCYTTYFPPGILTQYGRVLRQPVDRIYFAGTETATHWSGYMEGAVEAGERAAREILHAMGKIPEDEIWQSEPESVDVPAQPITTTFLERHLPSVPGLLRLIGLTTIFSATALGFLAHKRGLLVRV
# [5] = target: T3, human dopamine D4 receptor (hD4R) (Homo sapiens, UniProt P21917); assay: cell-based functional GPCR assay, cAMP modulation, CHO-D4R; settings: for % Stimulation of control agonist response: D4 (h), 100 µM test compound, control 300 nM DA; for agonist response (%): D4R, 25 µM test compound; for inhibition at 100 µM: read-out: % Inhibition of control agonist response
# T3 sequence (P21917 1-419): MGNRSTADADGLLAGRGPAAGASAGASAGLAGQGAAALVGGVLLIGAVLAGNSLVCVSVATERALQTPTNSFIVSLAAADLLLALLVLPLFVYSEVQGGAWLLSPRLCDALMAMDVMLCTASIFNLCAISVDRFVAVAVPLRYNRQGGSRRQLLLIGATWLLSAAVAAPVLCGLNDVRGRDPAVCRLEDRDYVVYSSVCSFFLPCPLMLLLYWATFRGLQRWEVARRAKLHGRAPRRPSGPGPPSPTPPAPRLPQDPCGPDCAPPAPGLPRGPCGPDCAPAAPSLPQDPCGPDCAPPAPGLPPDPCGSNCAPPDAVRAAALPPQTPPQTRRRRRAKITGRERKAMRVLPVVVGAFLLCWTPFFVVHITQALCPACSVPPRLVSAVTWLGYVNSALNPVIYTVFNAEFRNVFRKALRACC
# [6] = target: T4, Human Monoamine Oxidase A (hMAO-A) (Homo sapiens, UniProt P21397); assay: hMAO-A inhibition, MAO-Glo chemiluminescent assay and enzyme kinetics; format: biochemical; settings: for Inhibition Type: Lineweaver–Burk and Dixon plots
# T4 construct: purchased Sigma-Aldrich
# T4 sequence (P21397 1-527): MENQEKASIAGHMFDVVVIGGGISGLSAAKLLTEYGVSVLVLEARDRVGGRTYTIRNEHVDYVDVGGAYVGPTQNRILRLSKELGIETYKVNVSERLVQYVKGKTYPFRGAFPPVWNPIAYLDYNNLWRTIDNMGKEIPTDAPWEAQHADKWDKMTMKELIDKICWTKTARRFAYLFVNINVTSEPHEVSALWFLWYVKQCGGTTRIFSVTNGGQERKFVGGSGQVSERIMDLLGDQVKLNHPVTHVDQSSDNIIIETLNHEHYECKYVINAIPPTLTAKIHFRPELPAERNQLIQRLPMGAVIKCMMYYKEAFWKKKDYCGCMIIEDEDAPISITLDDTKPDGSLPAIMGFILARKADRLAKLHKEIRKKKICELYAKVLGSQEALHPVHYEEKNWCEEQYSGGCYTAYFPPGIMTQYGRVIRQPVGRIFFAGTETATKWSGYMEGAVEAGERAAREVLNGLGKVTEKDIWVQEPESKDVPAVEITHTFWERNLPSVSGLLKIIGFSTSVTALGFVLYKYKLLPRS
# [7] = hD2LR antagonist effect, read-out: IC50 (inhibition of control agonist response)
# [8] = hMAO-A, Dixon plot, read-out: Ki Value
# [9] = hMAO-A, log dose-inhibition curve, triplicate, read-out: IC50 (μM, Mean ± SD)
Compound,% inhibition of hMAO activity (hMAO) [%],inhibition at 100 µM [1] [%],% Stimulation of control agonist response [1],inhibition at 25 µM [1] [%],"IC50 [1, 7] [µM]",EC50 [2] [µM],% Stimulation of control agonist response [2],agonist response (%) [2] [%],inhibition at 100 µM [2] [%],IC50 [3] [µM],% Stimulation of control agonist response [3],inhibition at 100 µM [3] [%],inhibition at 25 µM [3] [%],"Ki ([4]; Dixon plot, read-out: Ki Value) [µM]",Inhibition Type [4],IC50 [4] [µM],EC50 [5] [µM],% Stimulation of control agonist response [5],inhibition at 100 µM [5] [%],Inhibition Type ([6]; hMAO-A),also measured
"CC1=C[C@H]2c3c(O)cc(-c4cc5ccc(O)cc5o4)cc3O[C@@]3(c4ccc(O)cc4O)Oc4cc(O)ccc4[C@H](C1)[C@@H]23 [Compound 1, mulberrofuran G]",93.87,101,7.10 ± 1.47%,97.2,2.41,15.1,119.9% and 119.9 ± 2.44%,71.92,-28.7,6.13,17.2 ± 8.4%,87.7,92.3,17 ± 3.31,Noncompetitive,18.1 ± 1.06,17.2,86.30% and 86.30 ± 0.99%,-20.8,Competitive,"agonist response (%) [5]: 63.00%; Ki [6, 8]: 27 ± 3.98 µM; IC50 [6, 9]: 54.79 ± 0.03 µM"
"CC(C)=CCc1c(-c2ccc(O)cc2O)oc2c(C3C=C(C)CC(c4ccc(O)cc4O)C3C(=O)c3ccc(O)cc3O)c(O)cc(O)c2c1=O (stereo not drawn) [Compound 2, kuwanon G]",99.05,99.2,NSI,33.7,,20.2,,,-27.4,16.5,0.85 ± 0.24%,98.8,91.1,52.1 ± 5.56,Noncompetitive,57.7 ± 2.12,21,90.45% and 90.45 ± 0.14%,-29.6,Competitive,IC50 [1]: 31.2 µM; agonist response (%) [5]: 58.66%; IC50 [6]: 70.2 ± 2.6 µM; Ki [6]: 28.3 ± 2.02 µM
"Cc1cc2c3c(c1)-c1c(O)cc(-c4cc5ccc(O)cc5o4)cc1OC3(c1ccc(O)cc1O)Oc1cc(O)ccc1-2 (stereo not drawn) [Compound 3, albanol B]",74.85,78.5,4.10 ± 1.06%,81.1,18.4,12.6,102.8% and 102.8 ± 1.36%,94.93,-13.4,7.16,INTER,67.8,66.8,,mixed type,90.6 ± 1.72,,46.10% and 46.10 ± 1.76%,26.9,Competitive,"Kiu (binding constant with enzyme-substrate complex) ([4]; secondary plot): 186.2 ± 10.26 µM; Ki ([4]; secondary plot, read-out: Kic (binding constant with free enzyme)): 55.2 ± 7.79 µM; Ki [6, 8]: 46.9 ± 4.12 µM; IC50 [6, 9]: 114 ± 2.3 µM"
